Like-named read-outs stand apart in the source and are kept apart here. Where only a bound is given, the exact number is not on record here.

We go through nine compounds from paper PMC7004151, “Synthesis and Structure‐Activity Relationships of N‐(4‐Benzamidino)‐Oxazolidinones: Potent and Selective Inhibitors of Kallikrein‐Related Peptidase 6” (Chemmedchem, 2019).

Data set [1] deals with T1, KLK6 (Homo sapiens, UniProt Q92876). The experiment in a line: SPR binding assay (Biacore T200, KLK6 immobilized on CM5 chip). As to conditions: read-out: KLK6 pKD (converted). On the procedure: High Throughput Screen: The European Lead Factory library of ∼350,000 compounds was used for high throughput screening at the Pivot Park Screening Center facilities in Oss, The Netherlands. HighRes Biosolutions robotic infrastructure using Cellario software was programmed to perform screening of 281 1536‐well plates. Using the primary KLK6 fluorescent intensity (FI) assay (see below), 7794 compounds having a Z‐score≤‐4 were selected for further follow‐up. An additional set of compounds was added based on Bayesian modeling to include potential false negatives in the hit confirmation. […] Upon testing of these compounds using SPR and LC‐MS, a qualified hit list (QHL) was registered containing 50 compounds. For SPR, Biacore T200 was used and KLK6 was immobilized onto a CM5 chip. 226 test compounds were screened at 4 concentrations: 20, 4, 0.8 and 0.16 μM in running buffer: 50 mM Tris‐HCl, 1 mM EDTA pH 7.5, 150 mM NaCl, 0.05 % Tween 20, 3 % DMSO at 25 °C. Control injections of 5 μM 1 were used throughout the screen to ensure that KLK6 was stable and had not been blocked by potential irreversible binders/denaturants. An 8 point 1 in 3 dilution series of 1 (50 μM to 0.02 μM) was also applied at the beginning and end of each screening day.
Background: In SPR one partner is held on a chip, and binding of the other changes the refractive index at the surface.

Data set [2] addresses T1, KLK6. Put plainly: KLK6 enzymatic inhibition assay (fluorogenic Boc-Phe-Ser-Arg-AMC substrate). The class given is biochemical. The arrangement: made in house. As to conditions: for IC50: read-out: KLK6 pIC50 (converted). On the procedure:
Using our previously published KLK6 assay format,21 we performed a HTS with the European Lead Factory (ELF),22 and tested ∼350,000 substances at 10 μM for their ability to reduce KLK6‐catalyzed hydrolysis of the fluorogenic Boc‐Phe‐Ser‐Arg‐AMC peptide.
High Throughput Screen: The European Lead Factory library of ∼350,000 compounds was used for high throughput screening at the Pivot Park Screening Center facilities in Oss, The Netherlands. […] For SPR, Biacore T200 was used and KLK6 was immobilized onto a CM5 chip. […] An 8 point 1 in 3 dilution series of 1 (50 μM to 0.02 μM) was also applied at the beginning and end of each screening day.
Enzyme inhibition assays: All chemicals were purchased from Sigma Aldrich (Gillingham, UK) unless otherwise stated.

The target of data set [3] is KLK6. As to conditions: covalent coumarin-based suicide inhibitor ref 20; cited from earlier work.
In a further data set the target is KLK4 (Homo sapiens, UniProt Q9Y5K2). The experiment in a line: KLK4 inhibition (selectivity). The class given is biochemical. As to conditions: read-out: KLK4 pIC50 (converted). An excerpt: Table 3 Activity of synthesized inhibitors against KLK6 and related proteases. | column: KLK4^a
KLK4, sequence (Q9Y5K2 31-254, species assumed): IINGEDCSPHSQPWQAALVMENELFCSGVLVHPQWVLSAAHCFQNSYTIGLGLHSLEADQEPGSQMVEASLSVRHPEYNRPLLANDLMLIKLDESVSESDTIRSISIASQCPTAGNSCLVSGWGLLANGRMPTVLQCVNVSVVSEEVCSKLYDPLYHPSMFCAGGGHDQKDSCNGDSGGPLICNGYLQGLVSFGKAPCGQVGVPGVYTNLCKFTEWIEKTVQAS
In another data set the target is T2, KLK7 (Homo sapiens, UniProt P49862).
T2 construct: purchased 2B scientific
T2 sequence (P49862 30-253, species assumed): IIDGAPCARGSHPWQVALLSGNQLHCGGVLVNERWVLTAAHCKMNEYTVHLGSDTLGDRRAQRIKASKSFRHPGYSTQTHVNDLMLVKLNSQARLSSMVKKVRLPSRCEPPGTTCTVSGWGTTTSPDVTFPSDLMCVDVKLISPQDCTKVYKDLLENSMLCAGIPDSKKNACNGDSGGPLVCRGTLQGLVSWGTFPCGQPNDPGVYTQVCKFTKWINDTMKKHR
Put plainly: KLK7 enzyme inhibition assay. As to conditions: read-out: KLK7 pIC50 (converted). It counts as biochemical. On the procedure: (§1) Enzyme inhibition assays: All chemicals were purchased from Sigma Aldrich (Gillingham, UK) unless otherwise stated. All experiments were conducted in 384 well black, low volume microplates (Greiner 784076) with a final volume of 20 μL and compounds were dispensed into assay plates using an ECHO 550 acoustic dispenser (Labcyte). KLK6 (5 nM) (prepared as in ref. 21) was incubated with test compounds for 30 min at room temperature in assay buffer (50 mM Tris, pH 7.5, 150 mM NaCl, 1 mM EDTA, 0.05 % tween 20, 0.1 % bovine serum albumin (BSA), 1 mM dithiothreitol (DTT)) before the reaction was started by addition of 20 μM Boc‐Phe‐Ser‐Arg‐AMC substrate (Bachem). Fluorescence intensity was read at ex/em 355/460 following incubation for 2 h in the dark at room temperature.
(§2) Assays using KLK7 and KLK8 (2B scientific) were conducted in the same manner as for KLK6 with the following exceptions. Both KLK7 and KLK8 required activation before assaying. KLK7 was combined with an equal volume of 20 μg/ml thermolysin (R&D systems) in activation buffer (50 mM Tris, pH 7.5, 10 mM CaCl2, 150 mM NaCl and 0.05 % Brij‐L23) and incubated at 37 °C for 2 h, the reaction was stopped with the addition of 100 mM EDTA in stop solution (50 mM Tris, 150 mM NaCl, pH 8.5). KLK8 was combined with an equal volume of 0.4 mU/mL lysyl endopeptidase (Alpha laboratories) in activation buffer (50 mM Tris, pH 8.0) and incubated at 37 °C for 30 min. Activated KLK7 (40 nM) and KLK8 (25 nM) were assayed with 40 μM Mca‐RPKPVE‐Nval‐WRK(Dnp)‐NH2 fluorogenic MMP substrate (R&D systems) and 25 μM Boc‐V‐P‐R‐AMC substrate (R&D systems), respectively.

For the next data set, the target named is T3, KLK8 (Homo sapiens, UniProt O60259).
T3 construct: purchased 2B scientific
T3 sequence (O60259 33-260): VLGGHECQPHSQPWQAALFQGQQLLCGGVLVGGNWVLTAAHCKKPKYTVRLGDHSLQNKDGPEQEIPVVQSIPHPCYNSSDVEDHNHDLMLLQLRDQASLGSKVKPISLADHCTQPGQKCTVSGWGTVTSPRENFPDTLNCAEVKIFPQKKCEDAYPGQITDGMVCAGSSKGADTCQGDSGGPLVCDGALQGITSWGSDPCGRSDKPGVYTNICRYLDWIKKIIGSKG
Put plainly: KLK8 enzyme inhibition assay. As to conditions: read-out: KLK8 pIC50 (converted). The class given is biochemical. On the procedure:
as §1, §2

A further data set concerns the target T4, Human trypsin (Homo sapiens, UniProt P07477).
T4 construct: purchased Polymun Scientific
The experiment in a line: Trypsin enzyme inhibition assay. The class given is biochemical. As to conditions: read-out: Trypsin pIC50 (converted). The procedure: Human thrombin was purchased from Biopur. Human trypsin was purchased from Polymun Scientific. Human Factor Xa was purchased from Enzo Life Sciences. […] Fluorescence intensity was then read at ex/em 485/535 following incubation for 1 h at room temperature (thrombin and factor Xa) or 20 min (trypsin).

The target in another data set is T5, Human thrombin (Homo sapiens, UniProt P00734).
T5 construct: Human thrombin was purchased from Biopur; purchased Biopur
The experiment in a line: Thrombin enzyme inhibition assay. The class given is biochemical. As to conditions: read-out: Thrombin pIC50 (converted). The procedure: (§3) Human thrombin was purchased from Biopur. Human trypsin was purchased from Polymun Scientific. Human Factor Xa was purchased from Enzo Life Sciences. Thrombin (20 nM), trypsin (0.000015 %) or Factor Xa (10 nM) were assayed in a similar manner to the KLKs but were incubated with compound for 20 min at room temperature in assay buffer (50 mM Tris HCl, pH 7.6, 100 mM NaCl, 1 mg/ml CHAPS, 0.05 % bovine serum albumin (BSA), 1 mM dithiothreitol (DTT)) before the addition of 5 μM, 2.5 μM or 1.5 μM Rhodamine 110 substrate (Cambridge bioscience ltd) respectively. Fluorescence intensity was then read at ex/em 485/535 following incubation for 1 h at room temperature (thrombin and factor Xa) or 20 min (trypsin).

The target of the next data set is T6, Human Factor Xa (Homo sapiens, UniProt P00742).
T6 construct: Human Factor Xa was purchased from Enzo Life Sciences; purchased Enzo Life Sciences
T6 sequence (P00742 235-488 limits assumed): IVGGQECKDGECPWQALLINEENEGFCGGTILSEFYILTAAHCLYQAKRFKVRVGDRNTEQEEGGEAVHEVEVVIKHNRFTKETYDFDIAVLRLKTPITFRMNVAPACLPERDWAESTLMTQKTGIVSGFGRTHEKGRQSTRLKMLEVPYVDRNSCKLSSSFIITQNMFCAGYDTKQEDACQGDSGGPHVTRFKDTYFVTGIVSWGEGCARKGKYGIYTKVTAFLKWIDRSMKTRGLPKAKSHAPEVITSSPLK
T6 sequence (P00742 41-179 partner limits assumed): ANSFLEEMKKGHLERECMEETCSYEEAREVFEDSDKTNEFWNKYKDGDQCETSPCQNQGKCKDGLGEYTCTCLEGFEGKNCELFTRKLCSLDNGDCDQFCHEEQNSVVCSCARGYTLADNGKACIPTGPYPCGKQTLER
The experiment in a line: Factor Xa enzyme inhibition assay. It counts as biochemical. As to conditions: read-out: Factor Xa pIC50 (converted). On the procedure:
as §3

The test system of data set [4] is HCT116 cells. Put plainly: HCT116 Matrigel invasion assay. It counts as cell-based. As to conditions: after 24 h; 9 at multiple concentrations; 32 at 50 nM and 500 nM. The procedure: Figure 5 HCT116 cells were treated with 9 or 32 at the indicated concentrations and plated on Matrigel®‐coated filters. The upper chamber contained serum‐free medium, while the lower chamber contained 10 % fetal bovine serum. After 24 h, the number of invading cells was measured optically. (A) This figure is one representative example of four biological replicates, each with similar outcomes. Error bars are SEM. Technical replicates: DMSO and 9 at 5 nM (n=3); 9 at 50 and 500 nM and 32 at all concentrations (n=6). Statistical significance was calculated using an unpaired two‐tailed t‐test. n.s=p≥0.05; **=p<0.01; ***=p<0.001. (B) Representative images (Scale bar, […]) of stained invaded cells outside of the inserts 24 h hours after treatment with 9, 32, or DMSO solvent control at the indicated concentrations. Phase contrast images were taken with EVOS FL Cell imagine system FL Auto microscope (Bio‐Rad).
Invasion assay: The HCT116 colorectal adenocarcinoma cell line (ATCC® CCL‐247™) was maintained in Dulbecco's Modified Eagle Medium (DMEM) with […] glucose, L‐glutamine w/o sodium pyruvate, supplemented with 10 % FBS and 1 % penicillin/streptomycin. […] The samples were transferred to a new 96 well plate and read at 560 nm on a Synergy 2 Multi‐Detection Microplate Reader (Bio‐Tek Instruments, Inc., Winooski, VT).

For data set [5], the system named is HCT116 cells. The experiment in a line: HCT116 cell growth and viability. It counts as cell-based. As to conditions: at the tested concentrations (data not shown). An excerpt: We have previously shown that knockdown of KLK6 reduces migration and invasion of HCT116 cells in vitro.13 In order to test whether this effect could be recapitulated with small molecule KLK6 inhibitors, we measured the ability of 32 to reduce invasion of HCT116 cells. […] HCT116 cell growth and viability was not altered upon treatment with compounds 9 and 32 at the tested concentrations (data not shown).

[6] abbreviates: HTS library sample, primary dose-response enzymatic inhibition assay.
The mark [7] stands for this setting: synthesized inhibitors (Table 3), 8.6 = assay limit.
Where [8] appears, read: resynthesized stereoisomers, enzymatic inhibition assay (Table 2).

In the case of `CCN(CC)C(=O)c1cccc(OCC2CN(c3ccc(C(=N)N)cc3)C(=O)O2)c1` (stereo not shown) [Compound 8], at KLK6 [1], the Kd was 7.94 µM. Moreover, the IC50 at KLK6 [2] (setting [6]) was 7940 nM.

As for `O=C(Oc1cc(Cl)ccc1Cl)c1cc2cc(Cl)ccc2oc1=O` [Compound 4], the kinact/Ki on KLK6 [3] is 131 ± 13 M⁻¹ s⁻¹.

Consider `N=C(N)c1ccc(N2CC(CC(=O)NCc3ccccc3C(F)(F)F)OC2=O)cc1` (stereo not shown) [Compound 6], for which the Kd on KLK6 [1] is 12.6 µM. Further, the IC50 on KLK6 [2] (setting [6]) is 10000 nM.

As for `C[C@H](NC(=O)[C@H]1CN(c2ccc(C(=N)N)cc2)C(=O)O1)c1ccc2ccccc2c1` [Compound 30, (5R)‐3‐(4‐carbamimidoylphenyl)‐N‐[(1S)‐1‐(2‐naphthyl)ethyl]‐2‐oxo‐oxazolidine‐5‐carboxamide], the IC50 at KLK4 is 3.16 µM; at KLK7, above 20 µM; at KLK8, 10 µM; on Human trypsin, 3.98 µM; on Human thrombin, above 20 µM; on Human Factor Xa, above 20 µM. In addition, the IC50 on KLK6 [2] (setting [7]) was 100 nM. Moreover, on KLK6 [2] (relative to 29), the KLK6 potency loss came out at 10 fold.

Turning to `COc1cccc(C(C)NC(=O)C2CC(=O)N(c3ccc(C(=N)N)cc3)C2)c1` [Compound 43, (5R)‐1‐(4‐carbamimidoylphenyl)‐N‐[(1S)‐1‐(3‐methoxyphenyl)ethyl]‐5‐oxopyrrolidine‐3‐carboxamide], the IC50 is 7.94 µM at KLK4; above 20 µM at KLK7; above 20 µM on KLK8; 5.01 µM on Human trypsin; above 20 µM at Human thrombin; above 20 µM at Human Factor Xa. In addition, at KLK6 [2] (setting [7]), the IC50 is 316 nM.

For the compound `COc1cccc([C@@H](C)NC(=O)[C@@H]2CN(c3ccc(C(=N)N)cc3)C(=O)O2)c1` [Compound 9], the “invasion of HCT116 cells” value with HCT116 cells [4] is listed as “no significant effect”. Moreover, in the data set on HCT116 cells [5], the “HCT116 cell growth and viability” value is on record as “not altered”. Moreover, at KLK6 [2] (setting [8]), the IC50 was above 20000 nM.

Regarding `CCOC(=O)C[S+]([O-])CC1CN(c2ccc(C(=N)N)cc2)C(=O)O1` (stereo not shown) [Compound 7], the Kd on KLK6 [1] was 20 µM. Also, on KLK6 [2] (setting [6]), the IC50 is 1580 nM.

For the compound `C[C@H](NC(=O)[C@H]1CN(c2ccc(C(=N)N)cc2)C(=O)O1)c1cccc2ccccc12` [Compound 29, (5R)‐3‐(4‐carbamimidoylphenyl)‐N‐((S)‐1‐(naphthalen‐1‐yl)ethyl)‐2‐oxooxazolidine‐5‐carboxamide], the IC50 at KLK4 is 0.631 µM; at KLK7, above 20 µM; on KLK8, 1 µM; on Human trypsin, 0.794 µM; at Human thrombin, above 20 µM; on Human Factor Xa it was above 20 µM. Moreover, at KLK6 [2] (setting [7]), the IC50 is 12.6 nM.

On to `COc1cccc([C@H](C)NC(=O)[C@H]2CN(c3ccc(C(=N)N)cc3)C(=O)O2)c1` [Compound 5, (5R)‐3‐(4‐carbamimidoylphenyl)‐N‐[(S)‐1‐(3‐methoxyphenyl)ethyl]‐2‐oxooxazolidine‐5‐carboxamide], for which the Kd on KLK6 [1] was 0.1 µM. Also, the IC50 on KLK4 is 7.94 µM; at KLK7, above 20 µM; on KLK8, 10 µM; on Human trypsin, 5.01 µM; on Human thrombin it was above 20 µM; at Human Factor Xa, above 20 µM. Moreover, the IC50 on KLK6 [2] (setting [6]) is 63.1 nM; at KLK6 [2] (setting [8]) it was 251 nM; at KLK6 [2] (setting [7]) it was 251 nM. The LipE on KLK6 [2] (LipE=pIC50 – logP (KLK6 pIC50, ALogP)) came out at 4.79.
